Results from article PMC6451765 (Journal of biomolecular structure & dynamics, 2013).

Molecular target: 5-HT2B (Homo sapiens, UniProt P41595)
Type: binding

5-HT2B, sequence (P41595 whole entry): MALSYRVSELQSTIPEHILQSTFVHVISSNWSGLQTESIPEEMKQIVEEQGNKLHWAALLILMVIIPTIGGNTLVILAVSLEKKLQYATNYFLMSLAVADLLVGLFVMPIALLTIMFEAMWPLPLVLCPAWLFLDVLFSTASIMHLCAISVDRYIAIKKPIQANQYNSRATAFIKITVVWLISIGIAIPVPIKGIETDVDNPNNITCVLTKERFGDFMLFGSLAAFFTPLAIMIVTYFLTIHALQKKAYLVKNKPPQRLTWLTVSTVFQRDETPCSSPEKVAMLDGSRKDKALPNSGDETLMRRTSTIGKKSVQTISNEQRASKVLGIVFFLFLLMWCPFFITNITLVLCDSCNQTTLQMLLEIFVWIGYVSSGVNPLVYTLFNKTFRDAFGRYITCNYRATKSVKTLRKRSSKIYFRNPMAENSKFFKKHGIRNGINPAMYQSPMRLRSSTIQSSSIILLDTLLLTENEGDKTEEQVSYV

Compound	Ki
CC(C)c1cccc(C(C)C)c1O [P, propofol]	0.95 µM
FC(F)OC(Cl)C(F)(F)F (centres unmarked) [I, isoflurane]	7.78 µM
